# Test results taken from patent publication US6835382B2, “Ii peptide therapeutics to enhance antigen presentation” (University of Massachusetts, priority 1996, dated 2004).
# Non-standard residues stand in square brackets, D forms with d. Orn = NCCC[C@H](N)C(=O)O
# Tests used:
# [1] = molecular target: T1, murine E^d MHC class II allele (Mus musculus, UniProt P01904+P01915); experiment: simultaneous assay, E^d allele (A20 APC, G28.C9 T hybridoma, HEL106-116; HT-2 [3H]TdR readout); type: cell-based; set-up: The A20 and CH27 B cell lymphoma lines express H-2^d and H-2^k alleles, respectively; endogenous in cells; host or cells: A20 B cell lymphoma (mitomycin C-treated or paraformaldehyde-fixed)
# T1 sequence (P01904 26-255): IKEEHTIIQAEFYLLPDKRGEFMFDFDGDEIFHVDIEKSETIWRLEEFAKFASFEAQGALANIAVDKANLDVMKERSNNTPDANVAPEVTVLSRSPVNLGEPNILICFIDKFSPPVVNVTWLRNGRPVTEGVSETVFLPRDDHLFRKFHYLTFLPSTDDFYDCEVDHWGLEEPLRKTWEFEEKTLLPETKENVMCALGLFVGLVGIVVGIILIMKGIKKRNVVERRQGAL
# T1 sequence (P01915 27-264 limits assumed): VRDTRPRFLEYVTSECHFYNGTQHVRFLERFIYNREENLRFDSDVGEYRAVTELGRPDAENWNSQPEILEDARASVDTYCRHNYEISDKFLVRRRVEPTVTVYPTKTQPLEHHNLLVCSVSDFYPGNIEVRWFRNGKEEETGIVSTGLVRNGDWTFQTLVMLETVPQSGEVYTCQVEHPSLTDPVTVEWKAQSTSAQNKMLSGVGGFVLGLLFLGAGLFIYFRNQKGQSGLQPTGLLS
# Method in brief: (§1)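 Read-out is [3H]TdR incorporation into HT-2 indicator cells exposed to supernatant from a 24 h primary culture. That culture combined mitomycin C-treated APC (5×10^6 cells/mL, 0.025 mg/mL mitomycin C, 20 min, 37° C), peptide, effector compound and T hybridoma, all added at once.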
# [2] = system: murine E^k MHC class II allele; experiment: simultaneous assay, E^k allele (CH27 APC, TPc9.1 T hybridoma, THMCC82-103 or PGCC81-104); type: cell-based
# Method in brief: as §1
# [3] = Table 4, AE109 homolog 64 μM, supernatant 1:2
# [4] = Table 1, AE peptide 64 μM (first value), 0.4 μM HEL106-116, supernatant 1:4
# [5] = Table 1, AE peptide 64 μM (first value), 0.075 μM THMCC82-103, supernatant 1:2
# [6] = Table 1, AE peptide 16 μM (second value), 0.4 μM HEL106-116, supernatant 1:4
# [7] = Table 1, AE peptide 16 μM (second value), 0.075 μM THMCC82-103, supernatant 1:2
# [8] = Table 16, AE peptide 4 μM, supernatant 1:8
# [9] = Table 11, AE peptide 64 μM, supernatant 1:8
# [10] = Table 14, AE peptide 64 μM, supernatant 1:4
# [11] = Table 11, AE peptide 64 μM, supernatant 1:4
# [12] = Table 2, AE peptide 64 μM, 0.05 μM HEL106-116, supernatant 1:2
# [13] = Table 2, AE peptide 64 μM, 0.05 μM PGCC81-104, supernatant 1:2
# [14] = Table 15, AE peptide 16 μM, supernatant 1:4
substance,measurement,setting,value
Ac-Y[Orn]MKLPKSAK-NH2 [AE130],"Times Baseline Response, E^d",[1]; [3],0.9
same,"Times Baseline Response, E^k",[2]; [3],1.1
Ac-LRMKLPKPPP-NH2 [AE167],"Times Baseline Response, E^d",[1]; [4],"20.1, n.d."
same,"Times Baseline Response, E^k",[2]; [5],"3.4, n.d."
YRMKLPKSAKPVSQMR [AE101],"Times Baseline Response, E^d",[1]; [6],4.9
same,"Times Baseline Response, E^d",[1]; [4],13.6
same,"Times Baseline Response, E^k",[2]; [7],0.8
same,"Times Baseline Response, E^k",[2]; [5],1.0
Ac-LRM M LPK-NH2 (Ac-LRMMLPK-NH2) [AE220],"Times Baseline Response, E^d","[1]; Table 6, AE peptide 64 μM, supernatant 1:4",2.8
same,"Times Baseline Response, E^d",[1]; [8],12.0
same,"Times Baseline Response, E^k","[2]; Table 6, AE peptide 64 μM, supernatant 1:4, reduced by a factor of 5",12.5
same,"Times Baseline Response, E^k",[2]; [8],1.1
Ac-LRMKLP k-NH2 [AE166],"Times Baseline Response, E^d",[1]; [9],26.4
same,"Times Baseline Response, E^d",[1]; [10],14.7
same,"Times Baseline Response, E^k",[2]; [11],3.4
same,"Times Baseline Response, E^k",[2]; [10],40.4
Ac-Y Q MKLPKSAK-NH2 [AE138],"Times Baseline Response, E^d",[1]; [3],0.7
same,"Times Baseline Response, E^k",[2]; [3],0.8
Ac-LR HArg KLPK-NH2 [AE197],"Times Baseline Response, E^d","[1]; Table 5, AE peptide 64 μM, supernatant 1:4",10.7
same,"Times Baseline Response, E^d",[1]; [8],16.3
same,"Times Baseline Response, E^k","[2]; Table 5, AE peptide 64 μM, supernatant 1:4, normalized to E^d by a factor of 10",39.9
same,"Times Baseline Response, E^k",[2]; [8],1.7
Ac-LRMKLPKSAK-NH2 [AE110],"Times Baseline Response, E^d",[1]; [6],27.8
same,"Times Baseline Response, E^d",[1]; [4],47.1
same,"Times Baseline Response, E^d",[1]; [12],23.8
same,"Times Baseline Response, E^k",[2]; [7],2.1
same,"Times Baseline Response, E^k",[2]; [5],7.6
same,"Times Baseline Response, E^k",[2]; [13],19.1
Ac-ARNKLPK-NH2 [AE344],"Times Baseline Response, E^d",[1]; [14],7.7
same,"Times Baseline Response, E^k",[2]; [14],2.5
Ac-LRLK HArg PK-NH2 [AE341],"Times Baseline Response, E^d",[1]; [14],38.9
same,"Times Baseline Response, E^k",[2]; [14],42.4
Ac-LRNKNPF-NH2 [AE348],"Times Baseline Response, E^d",[1]; [14],13.1
same,"Times Baseline Response, E^k",[2]; [14],6.3
Ac-YRMKLPKSAK-NH2 [AE109],"Times Baseline Response, E^d",[1]; [6],20.8
same,"Times Baseline Response, E^d",[1]; [4],39.3
same,"Times Baseline Response, E^d",[1]; [12],25.5
same,"Times Baseline Response, E^d",[1]; [3],3.3
same,"Times Baseline Response, E^d","[1]; Table 8, AE peptide 4 μM (third), supernatant 1:8",7.4
same,"Times Baseline Response, E^d","[1]; Table 8, AE peptide 16 μM (second), supernatant 1:8","17.6,"
same,"Times Baseline Response, E^d","[1]; Table 8, AE peptide 64 μM (first), supernatant 1:8","16.4,"
same,"Times Baseline Response, E^d","[1]; Table 10, AE peptide 16 μM (second value), supernatant 1:2",24.3
same,"Times Baseline Response, E^d","[1]; Table 10, AE peptide 64 μM (first value), supernatant 1:2",27.5
same,"Times Baseline Response, E^k",[2]; [7],2.2
same,"Times Baseline Response, E^k",[2]; [5],6.9
same,"Times Baseline Response, E^k",[2]; [13],43.7
same,"Times Baseline Response, E^k",[2]; [3],2.3
same,"Times Baseline Response, E^k","[2]; Table 8, AE peptide 4 μM (third), supernatant 1:4",1.0
same,"Times Baseline Response, E^k","[2]; Table 8, AE peptide 16 μM (second), supernatant 1:4","1.5,"
same,"Times Baseline Response, E^k","[2]; Table 8, AE peptide 64 μM (first), supernatant 1:4","4.3,"
same,"Times Baseline Response, E^k","[2]; Table 10, AE peptide 64 μM, supernatant 1:2 (first value)",66.0
same,"Times Baseline Response, E^k","[2]; Table 10, AE peptide 64 μM, supernatant 1:4 (second value)",56.3
Ac-LRMKL p K-NH2 [AE165],"Times Baseline Response, E^d",[1]; [9],26.6
same,"Times Baseline Response, E^k",[2]; [11],3.6
Ac-LRMK M PK-NH2 (Ac-LRMKMPK-NH2) [AE236],"Times Baseline Response, E^d","[1]; Table 7, AE peptide 64 μM, supernatant 1:4",15.2
same,"Times Baseline Response, E^k","[2]; Table 7, AE peptide 64 μM, supernatant 1:4, normalized by a factor of 5",16.9
Ac-YRMKLPK-NH2 [AE113],"Times Baseline Response, E^d",[1]; [6],23.1
same,"Times Baseline Response, E^d",[1]; [4],36.3
same,"Times Baseline Response, Ed","[1]; Table 3, AE peptide 64 μM, supernatant 1:4",12.3
same,"Times Baseline Response, E^k",[2]; [7],6.7
same,"Times Baseline Response, E^k",[2]; [5],15.5
same,"Times Baseline Response, Ek","[2]; Table 3, AE peptide 64 μM, supernatant 1:4, values reduced relative to E^d by a factor of 10",24.9
Ac-LRLKWPK-NH2 [AE309],"Times Baseline Response, E^d",[1]; [10],12.1
same,"Times Baseline Response, E^d",[1]; [14],13.1
same,"Times Baseline Response, E^d",[1]; [8],20.0
same,"Times Baseline Response, E^k",[2]; [10],48.2
same,"Times Baseline Response, E^k",[2]; [14],38.0
same,"Times Baseline Response, E^k",[2]; [8],1.8
Ac-LRLKyPK-NH2 [AE308],"Times Baseline Response, E^d",[1]; [10],12.6
same,"Times Baseline Response, E^k",[2]; [10],45.5
Ac-Y F MKLPKSAK-NH2 [AE139],"Times Baseline Response, E^d",[1]; [3],0.8
same,"Times Baseline Response, E^k",[2]; [3],1.5
Ac-LR (mL) KYPk-NH2 [AE305],"Times Baseline Response, E^d",[1]; [10],5.2
same,"Times Baseline Response, E^k",[2]; [10],26.8
Ac-ARMKNPK-NH2 [AE345],"Times Baseline Response, E^d",[1]; [14],3.7
same,"Times Baseline Response, E^k",[2]; [14],4.8
Ac-LRMKLP N-NH2 (Ac-LRMKLPN-NH2) [AE246],"Times Baseline Response, E^d","[1]; Table 9, AE peptide 64 μM, supernatant 1:4",7.3
same,"Times Baseline Response, E^d",[1]; [8],21.8
same,"Times Baseline Response, E^k","[2]; Table 9, AE peptide 64 μM, supernatant 1:4, normalized by a factor of 5",16.4
same,"Times Baseline Response, E^k",[2]; [8],1.0
